One data set deals with souris. The experiment in a line: Phenylbenzoquinone (PBQ) writhing test (Siegmund), analgesic activity. In kind it is in vivo. To be noted: po, 0.5 h; mouse, per os 30 minutes before intraperitoneal PBQ injection; read-out: DE50 (the source's name). The protocol: L'activité sur le test des contorsions à la phényl benzoquinone (PBQ) selon SIEGMUND et Coll., J. Pharm. Exptl. Ther. 1957, 119, 453, a été déterminée après administration du produit per os; la dose est exprimée en mg/kg chez la souris 30 minutes avant l'injection intra-péritonéale de l'agent algogène.
Les résultats sont exprimés en pourcentage de variation du nombre de contorsions. Pour les molécules les plus actives nous avons déterminé la DE50, les résultats sont répertoriés dans le tableau suivant : […]

Data set [1] is described as follows: Acute oral toxicity in mice (LD50, method of Miller and Tainter). To be noted: in vivo; mouse about 20 g, oral administration; read-out: DL50 voie orale. The text has this: L'étude de la toxicité a été effectuée chez la souris conventionnelle pesant environ 20 grammes.
Les substances ont été administrées par voie orale. Les doses létales 50 sont exprimées en mg/kg et ont été calculées selon la méthode de MILLER et TAINTER, Proc. Scc. Exper. Biol. Med. 1944, 57, 261.

A short description of data set [2]: Qualitative solubility in water and solvents. In kind it is physicochemical. Particulars: for Insoluble dans: media in which the compound is insoluble; for Soluble dans: media in which the compound is soluble.
The test system of the next data set is P.R.P. de LAPIN. The experiment in a line: In vitro platelet anti-aggregation, arachidonic acid-induced, in rabbit PRP. The format is cell-based. Particulars: dissolved in PEG 400, incubated 1 minute with PRP before arachidonic acid 2 x 10^-4M; ranking in words. The source says: Les produits sont dissous dans le PEG 400, puis additionnés au P.R.P. de LAPIN puis incubés une minute avant l'addition d'agent agrégant (acide arachidonique 2 x 10^-4M). Le produit le plus actif est le ST 938.

On to `C=COCCn1nc(-c2ccc(OC)cc2)c(-c2ccc(OC)cc2)nc1=O` [ST 777, Oxo-3 vinyloxyéthyl-2 di(paraméthoxyphényl)-5-6 as triazine], for which the ED50 in the data set on souris stood at 10 mg/kg. Moreover, the LD50 in data set [1] is greater than 1000 mg/kg. For the same molecule, in data set [2], the Insoluble dans entry was “l'eau, les bases et les acides dilués et l'éther” and the Soluble dans result is reported as “les alcools, le benzène, le chlorure de méthylène et le chloroforme”.

For `CCOC(=O)C(C(=O)OCC)n1nc(-c2ccc(OC)cc2)c(-c2ccc(OC)cc2)nc1=O` [ST 824, Oxo-3 diéthylmalonyl-2 di(paraméthoxyphényl)-5-6 as triazine], the LD50 in data set [1] was greater than 1000 mg/kg. In data set [2], the Insoluble dans entry is “l'eau, les bases et les acides dilués et l'éther” and the Soluble dans result is listed as “les alcools, le benzène, le chlorure de méthylène et le chloroforme”.

As to `COc1ccc(-c2nc(=O)n(CCCN3CCN(C)CC3)nc2-c2ccc(OC)cc2)cc1` [ST 881, Dichlorhydratede l'oxo-3 N méthyl piperazinyl-3' propyl-2 di(paraméthoxyphényl)-5-6 as triazine], the ED50 in the data set with souris turned out to be 6.7 mg/kg. In addition, in data set [1], the LD50 was greater than 1000 mg/kg. For the same molecule, in data set [2], the Insoluble dans entry is listed as “le benzène, le chlorure de méthylène et le chloroforme” and the Soluble dans result was “l'eau, les acides dilués et les alcools”.

For the molecule `COc1ccc(-c2nc(=O)n(CCCCl)nc2-c2ccc(OC)cc2)cc1` [ST 938, Oxo-3 chloropropyl-2 di(paraméthoxyphényl)-5-6 as triazine], the LD50 in data set [1] was no less than 1000 mg/kg. For the same molecule, in the data set on P.R.P. de LAPIN, the “Propriétés antiagrégantes (in vitro)” value is listed as “le plus actif”. For the same molecule, in data set [2], the Insoluble dans result is given as “l'eau, les bases et les acides dilués et l'éther” and the Soluble dans result is given as “les alcools, le benzène, le chlorure de méthylène et le chloroforme”.

On to `CN(C)c1ccc(-c2nc(=O)n(CCO)nc2-c2ccc(N(C)C)cc2)cc1` [ST 817, Oxo-3 hydroxyéthyl-2 di(paradimétnylaminophényl)-5-6 as triazine], for which, in the data set with souris, the ED50 came out at 1.5 mg/kg. For the same molecule, the LD50 in data set [1] is greater than 1000 mg/kg. Further, in data set [2], the Insoluble dans result is “les bases diluées aqueuses, l'eau, le benzène et l'éther” and the Soluble dans result is on record as “les acides dilués, les alcools, le chlorure de méthylène et le chloroforme”.

Take `COc1ccc(-c2nc(=O)n(CCN3CCOCC3)nc2-c2ccc(OC)cc2)cc1` [ST 728, Oxo-3 morpholino éthyl-2 di(paraméthoxyphényl)-5-6 as triazine]: the LD50 in data set [1] was greater than 1000 mg/kg. In data set [2], the Insoluble dans result is on record as “l'eau, les bases diluées et l'éther” and the Soluble dans result is on record as “les acides, les alcools, le benzène, le chlorure de méthylène et le chloroforme”.

Consider `CN(C)c1ccc(-c2nc(=O)n(CCCCl)nc2-c2ccc(N(C)C)cc2)cc1` [ST 882, Oxo-3 γ-chloropropyl-2 di(paradiméthyiaminophényl) 5-6 as triazine], for which the ED50 in the data set on souris is 4.6 mg/kg. Besides, in data set [1], the LD50 was greater than 1000 mg/kg. In addition, in data set [2], the Insoluble dans result is reported as “l'eau et les bases diluées, et l'éther” and the Soluble dans result is recorded as “les acides dilués aqueux, les alcools, le benzène, le chlorure de méthylène et le chloroforme”.

Take `COc1ccc(-c2nc(=O)n(CCO)nc2-c2ccc(OC)cc2)cc1` [ST 791, Oxo-3 hydroxyéthyl-2 di(paraméthoxyphényl)-5-6 as triazine]: in the data set with souris, the ED50 came out at 9 mg/kg. Moreover, the LD50 in data set [1] was greater than 1000 mg/kg. Moreover, in data set [2], the Insoluble dans entry is on record as “l'eau, les bases et les acides dilués et l'éther” and the Soluble dans entry is “les alcools, le benzène, le chlorure de méthylène et le chloroforme”.

With `C=CCNCCCn1nc(-c2ccc(OC)cc2)c(-c2ccc(OC)cc2)nc1=O` [ST 876, Oxalatede l'oxo-3 γallylamino propyl-2 di(paraméthoxyphényl)-5-6 as triazine], the LD50 in data set [1] worked out at 750 mg/kg. Besides, in data set [2], the Insoluble dans result is “le benzène, l'éther et le chloroforme” and the Soluble dans entry is “l'eau, les alcools, et le chlorure de méthylène”.

For `CN(C)c1ccc(-c2nc(=O)n(CC(O)CO)nc2-c2ccc(N(C)C)cc2)cc1` (stereo not shown) [ST 886], the ED50 in the data set on souris came to 5.6 mg/kg. Also, the LD50 in data set [1] is greater than 1000 mg/kg. In data set [2], the Insoluble dans result is “l'eau et les bases diluées, l'éther” and the Soluble dans entry is recorded as “les acides dilués aqueux, les alcools, le benzène, le chlorure de méthylène et le chloroforme”.

Regarding `CN(C)c1ccc(-c2nc(=O)n(CCOC(=O)c3cccnc3)nc2-c2ccc(N(C)C)cc2)cc1` [ST 883, Oxo-3 nicotinoyloxyéthyl-2 di(paradiméthylaminophényl) 5-6 as triazine], the ED50 in the data set on souris came out at 3.1 mg/kg. The LD50 in data set [1] was greater than 1000 mg/kg. For the same molecule, in data set [2], the Insoluble dans entry is “l'eau et les bases diluées, l'éther” and the Soluble dans result is given as “les acides dilués, les alcools, le benzène, le chloroforme et le chlorure de méthylène”.

Regarding `CN(C)c1ccc(-c2nc(=O)n(CC(N)=O)nc2-c2ccc(N(C)C)cc2)cc1` [ST 812, Oxo-3 acétamido-2 di(paradiméthylaminophényl)-5-6 as triazine], the ED50 in the data set with souris came out at 12 mg/kg. The LD50 in data set [1] is greater than 1000 mg/kg. Moreover, in data set [2], the Insoluble dans entry was “l'eau, les bases diluées, les alcools, le benzène et l'éther” and the Soluble dans entry is listed as “les acides dilués et le chlorure de méthylène”.

For `COc1ccc(-c2nc(=O)n(C(C)CN(C)C)nc2-c2ccc(OC)cc2)cc1` (stereo not shown) [ST 766], in the data set on souris, the ED50 turned out to be 11 mg/kg. In data set [1], the LD50 was 750 mg/kg. Also, in data set [2], the Insoluble dans result is given as “l'eau, les bases diluées, le benzène et l'éther” and the Soluble dans result is on record as “les acides dilués, les alcools, le chlorure de méthylène et le chloroforme”.

The values above are taken from patent publication EP0099438A1, “2-Functionalised diaryl as-triazines useful in therapy” (PIERRE FABRE S.A., priority 1982, dated 1984).
